Assay results reported in article PMC8911752, “The Synthesis and Initial Evaluation of MerTK Targeted PET Agents” (Molecules, 2022).

Assays:
MerTK = target: T1, MerTK (Homo sapiens, UniProt Q12866); test: Microcapillary electrophoresis (MCE) kinase assay, MerTK; type: biochemical; conditions: for IC50: MCE assay, ATP at Km, mean of two or more independent assays; for selectivity over Axl, Tyro3 and Flt3: MerTK versus Axl, Tyro3, Flt3 in MCE assays
T1 sequence (Q12866 21-999): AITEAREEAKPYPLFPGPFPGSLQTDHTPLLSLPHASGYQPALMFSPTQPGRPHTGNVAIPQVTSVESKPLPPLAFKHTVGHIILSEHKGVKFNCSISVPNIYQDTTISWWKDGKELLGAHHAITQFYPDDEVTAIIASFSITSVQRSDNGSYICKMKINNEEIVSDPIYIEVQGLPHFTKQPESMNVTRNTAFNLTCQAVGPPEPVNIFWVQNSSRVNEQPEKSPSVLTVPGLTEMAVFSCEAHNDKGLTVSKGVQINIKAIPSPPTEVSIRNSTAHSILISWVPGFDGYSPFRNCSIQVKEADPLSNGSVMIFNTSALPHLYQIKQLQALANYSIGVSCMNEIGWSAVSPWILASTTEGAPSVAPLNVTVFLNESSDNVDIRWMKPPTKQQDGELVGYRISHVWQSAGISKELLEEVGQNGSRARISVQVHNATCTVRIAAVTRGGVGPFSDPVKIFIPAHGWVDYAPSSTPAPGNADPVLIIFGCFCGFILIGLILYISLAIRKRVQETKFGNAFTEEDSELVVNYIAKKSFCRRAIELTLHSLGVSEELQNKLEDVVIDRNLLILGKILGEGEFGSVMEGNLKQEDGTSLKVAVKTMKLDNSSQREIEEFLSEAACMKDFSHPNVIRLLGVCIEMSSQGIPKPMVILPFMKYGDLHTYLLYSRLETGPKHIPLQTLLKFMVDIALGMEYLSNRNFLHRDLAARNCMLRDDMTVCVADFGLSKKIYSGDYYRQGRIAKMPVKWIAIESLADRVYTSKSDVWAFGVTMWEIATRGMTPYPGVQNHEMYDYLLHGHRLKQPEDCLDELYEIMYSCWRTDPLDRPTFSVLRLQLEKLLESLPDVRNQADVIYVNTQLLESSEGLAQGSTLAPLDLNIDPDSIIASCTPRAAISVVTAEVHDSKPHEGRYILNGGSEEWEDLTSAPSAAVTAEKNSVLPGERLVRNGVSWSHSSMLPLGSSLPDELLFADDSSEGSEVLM
Method: The inhibitory activities of standards towards MerTK, Axl, Tyro3 and Flt3 were determined in our in-house microcapillary electrophoresis (MCE) assays.
Microcapillary Electrophoresis (MCE) Assays were performed with literature method. […] All reactions were terminated by addition of 20 µL of 70 mM EDTA. After an 180 min incubation, phosphorylated and unphosphorylated substrate peptides (Table 2) were separated in buffer supplemented with 1 x CR-8 on a LabChip EZ Reader equipped with a 12-sipper chip. Data were analyzed using EZ Reader software.

[1] = tested on: B16F10 tumor-bearing mice; test: PET imaging in B16F10 tumor-bearing mice; type: in vivo; conditions: 68Ga-labeled, initial pilot study in mice
[2] = tested on: B16F10 tumor-bearing mice; test: PET imaging in B16F10 tumor-bearing mice; type: in vivo; conditions: initial PET study, 18F-labeled agents
Method: Evaluation of the PET agent [^18F]-MerTK-6 was performed on B16F10 tumor-bearing mice. At 30 min post-injection (p.i), the uptake in tumor, liver, kidney, and muscle was 4.65 ± 1.25, 14.79 ± 0.99, 10.42 ± 1.01, and 2.51 ± 0.48%ID/g, respectively. The uptake at 2 h p.i. was 4.79 ± 0.24, 9.72 ± 1.56, 5.34 ± 1.25, and 1.55 ± 0.23%ID/g, respectively. Overall, the tumor uptake was maintained at ~5%ID/g and the tumor to muscle contrast increased to 3.09 at 2 h p.i, compared with 1.86 at 0.5 h p.i.
All animal studies were reviewed and approved by The University of North Carolina at Chapel Hill Institutional Animal Care and Use Committee. The B16F10 tumor cell was obtained from the LCCC tissue culture facility (the University of North Carolina at Chapel Hill, Chapel Hill, NC, USA). The B16F10 tumor-bearing […] mouse model was prepared as described previously. Briefly, B16/F10 cells were subcutaneously injected on the right flank of C57BL/6 female mice (Jackson Laboratory). The tumor volume was measured daily. When the tumor size reached 100 mm^3, the mice were used for PET imaging studies.
B16F10 tumor-bearing mice (n = 3/group) were intravenously injected via the tail vein with tracers. At 30 min and 120 min post-injection, a 10-min static emission scan was acquired with a SuperArgus small-animal PET/CT scanner. The regions of interests (ROIs) were drawn over the tumor and other organs and calculated as %ID/g. The mean uptake and standard deviation were calculated.

| IC50 (MerTK) | selectivity over Axl, Tyro3 and Flt3 (MerTK) | tumor uptakes [1] | tumor uptake and contrast compared with MerTK-5 [2] | SMILES |
| --- | --- | --- | --- | --- |
| 61 nM | Good selectivity |  |  | C[C@H](Nc1ncc2c(C3CCN(C)CC3)cn([C@H]3CC[C@H](O)CC3)c2n1)c1ccccc1 [MerTK-2] |
| 13 nM |  | < 1 %ID/g |  | C[C@H](Nc1ncc2c(C3CCN(C(=S)Nc4ccc(CC5CN(CC(=O)O)CCN(CC(=O)O)CCN5CC(=O)O)cc4)CC3)cn([C@H]3CC[C@H](O)CC3)c2n1)c1ccccc1 (stereo partly drawn) [MerTK-4] |
| 15 nM | good selectivity |  |  | CCC[C@H](C)Nc1ncc2c(C3CCN(CCF)CC3)cn([C@H]3CC[C@H](O)CC3)c2n1 [MerTK-5] |
| 37 nM | good selectivity |  | more prominent tumor uptake and contrast | C[C@H](Nc1ncc2c(C3CCN(CCF)CC3)cn([C@H]3CC[C@H](O)CC3)c2n1)c1ccccc1 [MerTK-6] |
